{"source": "patent US6433012B1", "about": "“Method for inhibiting inflammatory disease” (Large Scale Biology Corp., priority 1998, dated 2002)", "key": {"[1]": {"tested_on": "angiogenesis induced by hFGF-B in the chick chorioallantoic membrane (CAM)", "assay": "Chick chorioallantoic membrane (CAM) assay, 14C-proline incorporation into collagenous protein", "assay_type": "in vivo", "parameters": "inhibition of hFGF-B-induced angiogenesis: dose or concentration left out as unconfirmed", "source_text": "This example illustrates the anti-angiogenic properties of methyl-3,5-diiodo-4-(4′-methoxyphenoxy)benzoate in the chick chorioallantoic membrane assay (CAM). The endpoint of the CAM assay was a quantitative determination of basement membrane biosynthesis by measuring the incorporation of ^14C-proline into Type IV collagenous protein.\nThe CAM assay involves the development of live chick embryos in Petri dishes under special sterile conditions. Therefore, only limited numbers of embryos can be used for evaluation of compounds in a single experiment. For this reason, two separate assays were conducted to test the three Biosource compounds at three concentrations per compound. In this assay, a known angiogenesis inhibitor, 2-methoxyestradiol (2-ME), was used as the positive control, and human fibroblast growth factor (hFGF) was used to induce angiogenesis in the CAM.\nFor testing, a minimum amount of acetone-methanol (1:1) was added to the test compounds for sterilization. The acetone-methanol mixture was then evaporated to dryness in a sterile hood. The compounds were dissolved dimethyl sulfoxide (DMSO) first and then diluted with saline containing methylcellulose. The final concentrations were 2% DMSO and 0.5% methylcellulose. All test solutions were added to each CAM in […].\nFresh fertile eggs were incubated for three days in a standard egg incubator. On Day 3, eggs were cracked under sterile conditions and embryos were placed in 20×100 mm plastic Petri dishes and cultivated at 37° C. in an embryo incubator with a water reservoir on the bottom shelf. Air was continuously bubbled into the water reservoir by using a small pump so that the humidity in the incubator was kept constant. Observations were made daily to ensure that all embryos were healthy. Dead or unhealthy embryos were removed from the incubator immediately to avoid contamination. On Day 9, a sterile silicone ring cup was placed on each CAM and […] of ^14C-proline with or without the test compound plus 2.5 ng of hFGF dissolved in saline containing 0.5% methylcellulose was delivered into each ring cup in a sterile hood. 2-ME was tested in parallel to serve as a reference compound. After addition of test materials, the embryos were returned to the incubator and cultivation continued. On Day 12, all embryos were transferred to a cold room at 4-10° C. The antiangiogenic effect of each test compound was determined by using the collagenase assay (Maragoudakis, et al., J. Pharm. Exp. Ther. 251:679-682 (1989)) to measure ^14C-proline incorporation into collagenous protein.\nWith the embryos placed on ice, a piece of CAM 10 mm in diameter was cut off under each ring cup and placed in a separate tube. To each tube was added 1.0 mL of phosphate-buffered saline (PBS, pH 7.3) containing 0.11 mg cycloheximide and 0.17 mg dipyridyl. The tubes were placed in a boiling water bath for 10 min and then cooled to room temperature. The PBS in each tube was discarded after centrifugation at 3000× g for 10 min. The CAM residue was washed once with 3 mL of 15% TCA and then three times with 3 mL of 5% TCA. Centrifugation was carried out as described above between each washing. At this point all non-protein bound radioactivity was removed, and the CAM containing the newly synthesized ^14C-collagenous protein was suspended in 0.9 mL of 0.1 N NaOH and 1.1 mL of HEPES buffer at pH 7.4. The pH of the sample was neutralized with 0.8 N HCl, using phenol red as indicator.\nTo digest the ^14C-collagenous protein, 7.5 units of collagenase and 500 nmol of calcium chloride in […] of HEPES buffer was added to the above samples, and mixtures were incubated at 37° C. for 4 h. The reaction was stopped by adding 1.0 mL of 20% TCA containing 5 mg of tannic acid into each tube. After vortex mixing, the samples were centrifuged at 3000× g for 10 min. […]"}, "[2]": {"tested_on": "MCF-7 human breast carcinoma cells", "assay": "Chromosome condensation / prometaphase arrest", "assay_type": "cell-based", "settings": "1 μM for 24 h"}, "[3]": {"tested_on": "TNF-α mRNA in murine macrophage PU5-1.8 cell line", "assay": "TNF-α mRNA in LPS-stimulated macrophages (Northern blot)", "assay_type": "cell-based", "description": "The murine macrophage PU5-1.8 cell line was purchased from the American Type Culture Collection (ATCC, Rockville, Md.). Cells were grown in DMEM medium supplemented with […], 0.1 mM nonessential amino acids, 2 mM glutamine and 5% fetal bovine serum (Life Technologies, Staten Island, N.Y.). Cells were maintained in a humidified atmosphere of 5% CO2-95% air at 37° C. Cells were passages twice weekly by firmly tapping the side of the flask to dislodge the adherent cells. Both nonadherent and adherent cells were passages. Exponentially growing cells were seeded at 5×10 ^5/mL, 4mL per 60-mm dish 24 h prior to the experiment. Test compounds were delivered in 1 mL volumes of the medium added to each dish at the start of the experiment. All dishes were incubated at 37° C. in 5% CO2-95% air for 3 h.\nTotal RNA was isolated by the guanidinium-cesium chloride method as described in N. S. Waleh, J. Gallo, T. D. Grant, B. J. Murphy, R. H. Kramer and R. M. Sutherland. (1994) “Selective downregulation of integrin receptors in spheroids of squamous cell carcinoma” Cancer Res., 54:838-843. Five to 10 μg of total RNA was electrophoresed in 1% agarose gels containing 6% formaldehyde. Following electrophoresis, gels were stained with ethidium bromide to visualize the positions of 28S and 18S RNA. The RNAs were then transferred to nylon membranes (Amersham Hybond N) by capillary blotting and fixed to the filter by exposure to UV light. The blots were probed with ^32P-labeled cDNA sequences of human TNF-α obtained from the American Type Culture Collection (ATCC). The TNF-α cDNA was a 1.1 kb PstI fragment of plasmid pE4 in E. coli MM294 (ATCC 39894). Hybridizations were carried out at 42° C. in 50% formamide, 5×SSC, 5×Denhardt's solution, 0.1% SDS, and 0.3 mg/mL salmon sperm DNA. Filters were washed by 1×SSC, 0.1% SDS, twice at room temperature for 15 min and once at 55° C. in 0.1×SSC, 0.1% SDS for 1 hr. Filters were exposed to X-ray film at −70° C. using an intensifying screen (Coronex Hi-Plus).\nHybridized bands were quantified by analyzing the images obtained by using a video densitometer (Applied Imaging Corporation, Santa Clara, Calif.). Film densities were calibrated using an optical-density wedge."}, "purified tubulin": {"tested_on": "purified tubulin", "settings": "as a function of colchicine or vinblastine concentration", "source_text": "Tubulin-binding antimitotic drugs interact with the protein at diverse sites."}, "[4]": {"settings": "Table 1 experiment, dose 8.3 μg/CAM"}, "[5]": {"settings": "Table 1 experiment, dose 25 μg/CAM"}, "[6]": {"settings": "Table 1 experiment, dose 75 μg/CAM"}, "[7]": {"settings": "Table 2 experiment, dose 8.3 μg/CAM"}, "[8]": {"settings": "Table 2 experiment, dose 25 μg/CAM"}, "[9]": {"settings": "Table 2 experiment, dose 75 μg/CAM"}}, "note": "Marks after values point to notes of the source that are not given here."}
{"smiles": "COc1cc2c(cc1O)CC[C@@H]1[C@@H]2CC[C@]2(C)[C@@H](O)CC[C@@H]12", "note": "[2-Methoxyestradiol, 2-methoxyestradiol, reference compound]", "values": [{"measurement": "inhibition of hFGF-B-induced angiogenesis", "setting": "[1]", "value": 38, "unit": "%"}, {"measurement": "% Inhibition", "setting": "[1]; [4]", "value": 9, "unit": "%"}, {"measurement": "^14C-Proline Incorporated into Collagenous Protein (mean ± S.E.)", "setting": "[1]; [4]", "value": "5711 ± 1469", "unit": "cpm/mg-protien"}, {"measurement": "% Inhibition", "setting": "[1]; [5]", "value": 20, "unit": "%"}, {"measurement": "^14C-Proline Incorporated into Collagenous Protein (mean ± S.E.)", "setting": "[1]; [5]", "value": "5068 ± 1609", "unit": "cpm/mg-protien"}, {"measurement": "% Inhibition", "setting": "[1]; [6]", "value": 38, "unit": "%"}, {"measurement": "^14C-Proline Incorporated into Collagenous Protein (mean ± S.E.)", "setting": "[1]; [6]", "value": "3875 ± 891", "unit": "cpm/mg-protien"}, {"measurement": "% Inhibition", "setting": "[1]; [7]", "value": 6, "unit": "%"}, {"measurement": "^14C-Proline Incorporated into Collagenous Protein (mean ± S.E.)", "setting": "[1]; [7]", "value": "10499 ± 1372", "unit": "cpm/mg-protien"}, {"measurement": "% Inhibition", "setting": "[1]; [8]", "value": 35, "unit": "%"}, {"measurement": "^14C-Proline Incorporated into Collagenous Protein (mean ± S.E.)", "setting": "[1]; [8]", "value": "7303 ± 1424", "unit": "cpm/mg-protien"}, {"measurement": "% Inhibition", "setting": "[1]; [9]", "value": 38, "unit": "%"}, {"measurement": "^14C-Proline Incorporated into Collagenous Protein (mean ± S.E.)", "setting": "[1]; [9]", "value": "6984 ± 1022^b cpm/mg-protien"}]}
{"smiles": "COc1cc2c(c(OC)c1OC)-c1ccc(OC)c(=O)cc1[C@@H](NC(C)=O)CC2", "note": "[colchicine, reference compound]", "values": [{"measurement": "chromosome condensation (prometaphase arrest)", "setting": "[2]", "value": "produced identical chromosome condensation patterns"}, {"measurement": "inhibition of TNF-α mRNA accumulation", "setting": "[3]; 10 μM added to LPS (100 ng/mL) treated cultures, 3 h", "value": 68, "unit": "%"}, {"measurement": "effect on TNF-α mRNA expression, compound only", "setting": "[3]; 10 μM, without LPS, 3 h", "value": "no effect"}, {"measurement": "total RNA integrity", "setting": "[3]; cells treated with different concentrations", "value": "intact"}]}
{"smiles": "CC[C@]1(O)C[C@@H]2CN(CCc3c([nH]c4ccccc34)[C@@](C(=O)OC)(c3cc4c(cc3OC)N(C)[C@H]3[C@@](O)(C(=O)OC)[C@H](OC(C)=O)[C@]5(CC)C=CCN6CC[C@]43[C@@H]65)C2)C1", "note": "[vinblastine]", "values": [{"measurement": "effect of competitor on binding of 14C-labeled BTO-956 to tubulin", "setting": "purified tubulin", "value": "had no effect"}]}
